Measured values reported in ChEMBL document CHEMBL1240489, “Discovery of N-{1-[3-(3-oxo-2,3-dihydrobenzo[1,4]oxazin-4-yl)propyl]piperidin-4-yl}-2-phenylacetamide (Lu AE51090): an allosteric muscarinic M1 receptor agonist with unprecedented selectivity and procognitive potential” (J Med Chem, 2010).
Calls of active or inactive are those of the source. The calls are words filed in the database; no cut-off is given here.

Tests used:
[1] = target: Kappa-type opioid receptor (Homo sapiens, UniProt P41145); experiment: Binding affinity to kappa opioid receptor by radioligand displacement assay
Sequence of Kappa-type opioid receptor (P41145 whole entry): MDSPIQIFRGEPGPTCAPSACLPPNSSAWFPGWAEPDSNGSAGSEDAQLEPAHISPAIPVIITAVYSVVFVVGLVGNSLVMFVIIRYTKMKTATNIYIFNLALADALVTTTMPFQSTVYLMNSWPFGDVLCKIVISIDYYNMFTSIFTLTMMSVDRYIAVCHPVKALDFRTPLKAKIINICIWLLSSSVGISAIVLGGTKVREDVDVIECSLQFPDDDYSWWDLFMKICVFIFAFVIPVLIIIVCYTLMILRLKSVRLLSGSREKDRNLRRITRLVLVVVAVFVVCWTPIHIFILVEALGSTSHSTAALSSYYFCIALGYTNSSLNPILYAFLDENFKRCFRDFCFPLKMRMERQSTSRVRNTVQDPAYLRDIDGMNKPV

Acetylcholinesterase = Acetylcholinesterase (Homo sapiens, UniProt P22303); experiment: Binding affinity to human acetylcholine esterase by radioligand displacement assay
Sequence of Acetylcholinesterase (P22303 whole entry): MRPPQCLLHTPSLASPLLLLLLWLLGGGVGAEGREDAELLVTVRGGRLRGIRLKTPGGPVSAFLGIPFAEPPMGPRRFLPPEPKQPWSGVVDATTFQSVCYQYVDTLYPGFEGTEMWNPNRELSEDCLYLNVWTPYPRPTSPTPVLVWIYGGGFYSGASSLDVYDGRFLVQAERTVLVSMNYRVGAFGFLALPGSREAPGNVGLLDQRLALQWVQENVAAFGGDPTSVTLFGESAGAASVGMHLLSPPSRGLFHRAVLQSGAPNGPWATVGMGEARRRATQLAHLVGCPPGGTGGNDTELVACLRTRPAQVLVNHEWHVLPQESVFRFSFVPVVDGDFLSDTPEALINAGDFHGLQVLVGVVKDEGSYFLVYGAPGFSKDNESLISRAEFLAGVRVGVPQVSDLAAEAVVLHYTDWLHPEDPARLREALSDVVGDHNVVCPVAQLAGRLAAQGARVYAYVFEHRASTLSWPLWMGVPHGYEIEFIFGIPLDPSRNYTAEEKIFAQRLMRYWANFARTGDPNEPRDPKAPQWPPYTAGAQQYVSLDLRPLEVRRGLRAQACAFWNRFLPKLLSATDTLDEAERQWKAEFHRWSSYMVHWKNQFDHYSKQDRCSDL

[2] = target: Muscarinic acetylcholine receptor M1 (Homo sapiens, UniProt P11229, Y381A)
Sequence of Muscarinic acetylcholine receptor M1 (Homo sapiens, UniProt P11229, Y381A) (P11229 whole entry Y381A): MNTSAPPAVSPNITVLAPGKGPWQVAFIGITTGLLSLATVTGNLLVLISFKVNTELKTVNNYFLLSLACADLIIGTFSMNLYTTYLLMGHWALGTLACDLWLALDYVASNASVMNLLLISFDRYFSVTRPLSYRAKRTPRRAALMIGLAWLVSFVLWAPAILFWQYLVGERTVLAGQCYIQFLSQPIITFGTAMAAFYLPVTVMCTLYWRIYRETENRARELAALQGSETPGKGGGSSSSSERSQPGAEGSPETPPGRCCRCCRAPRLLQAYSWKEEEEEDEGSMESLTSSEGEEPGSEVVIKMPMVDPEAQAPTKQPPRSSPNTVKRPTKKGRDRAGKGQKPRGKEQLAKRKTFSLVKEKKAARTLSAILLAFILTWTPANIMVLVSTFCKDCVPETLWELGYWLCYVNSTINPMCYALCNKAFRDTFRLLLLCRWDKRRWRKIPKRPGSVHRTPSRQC

[3] = Binding affinity to PDE3 by enzyme assay
[4] = Binding affinity to Ca2+ channel by radioligand displacement assay
[5] = target: T1, Muscarinic acetylcholine receptor M4 (Homo sapiens, UniProt P08173); experiment: Binding affinity to human muscarinic M4 receptor by radioligand displacement assay
T1 sequence (P08173 whole entry): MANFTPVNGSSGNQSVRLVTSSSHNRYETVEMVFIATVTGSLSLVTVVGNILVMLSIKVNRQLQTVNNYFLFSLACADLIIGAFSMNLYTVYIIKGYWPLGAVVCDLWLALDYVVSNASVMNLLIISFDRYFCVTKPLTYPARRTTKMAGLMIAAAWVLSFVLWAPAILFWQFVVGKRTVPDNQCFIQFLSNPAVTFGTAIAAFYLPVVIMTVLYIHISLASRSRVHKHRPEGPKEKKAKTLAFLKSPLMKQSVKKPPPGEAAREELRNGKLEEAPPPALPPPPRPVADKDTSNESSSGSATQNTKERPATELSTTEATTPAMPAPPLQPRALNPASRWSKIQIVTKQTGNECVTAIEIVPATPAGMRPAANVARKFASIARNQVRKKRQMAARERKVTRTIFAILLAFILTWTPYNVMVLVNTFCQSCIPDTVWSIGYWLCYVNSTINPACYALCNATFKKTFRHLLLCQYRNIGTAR

Histamine H2 receptor = Histamine H2 receptor (Homo sapiens, UniProt P25021); experiment: Binding affinity to human histamine H2 receptor by radioligand displacement assay
Sequence of Histamine H2 receptor (P25021 whole entry): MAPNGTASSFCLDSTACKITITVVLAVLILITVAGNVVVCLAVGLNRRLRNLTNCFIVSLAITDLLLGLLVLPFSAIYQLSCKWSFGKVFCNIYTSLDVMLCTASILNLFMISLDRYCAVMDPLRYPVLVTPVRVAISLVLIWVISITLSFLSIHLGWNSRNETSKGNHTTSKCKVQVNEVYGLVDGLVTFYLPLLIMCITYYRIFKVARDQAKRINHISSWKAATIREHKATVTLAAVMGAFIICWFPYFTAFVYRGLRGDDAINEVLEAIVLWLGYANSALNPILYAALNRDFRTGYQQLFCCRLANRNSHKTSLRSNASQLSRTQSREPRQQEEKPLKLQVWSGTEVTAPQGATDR

[6] = target: 5-hydroxytryptamine receptor 4 (Homo sapiens, UniProt Q13639); experiment: Binding affinity to human 5-HT4e receptor by radioligand displacement assay
Brain = experiment: Protein binding in C57/6J mouse brain homogenates at 20 mg/kg, sc by equilibrium dialysis; format: ADME, organism-based; design: dose 20 mg/kg, route subcutaneous; settings: in vivo
[7] = target: Neuronal acetylcholine receptor; alpha4/beta2 (Homo sapiens, UniProt P17787+P43681); experiment: Binding affinity to nAChR alpha4beta2 receptor by radioligand displacement assay; format: protein-complex assay
Sequence of Neuronal acetylcholine receptor; alpha4/beta2 (P17787 whole entry): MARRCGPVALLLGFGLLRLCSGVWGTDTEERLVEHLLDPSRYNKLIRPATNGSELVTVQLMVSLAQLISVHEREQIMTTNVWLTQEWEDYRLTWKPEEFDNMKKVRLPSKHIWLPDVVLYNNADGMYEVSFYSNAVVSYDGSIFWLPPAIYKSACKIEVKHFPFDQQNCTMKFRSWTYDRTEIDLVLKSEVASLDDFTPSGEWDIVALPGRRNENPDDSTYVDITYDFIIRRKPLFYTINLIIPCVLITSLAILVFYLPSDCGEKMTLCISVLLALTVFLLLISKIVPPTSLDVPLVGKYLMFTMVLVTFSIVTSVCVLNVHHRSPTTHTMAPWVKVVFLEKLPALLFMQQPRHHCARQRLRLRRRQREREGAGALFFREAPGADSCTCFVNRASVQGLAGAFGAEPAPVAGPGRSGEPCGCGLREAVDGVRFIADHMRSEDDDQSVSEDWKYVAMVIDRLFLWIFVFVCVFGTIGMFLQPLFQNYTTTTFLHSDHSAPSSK
Sequence of Neuronal acetylcholine receptor; alpha4/beta2 (P43681 whole entry): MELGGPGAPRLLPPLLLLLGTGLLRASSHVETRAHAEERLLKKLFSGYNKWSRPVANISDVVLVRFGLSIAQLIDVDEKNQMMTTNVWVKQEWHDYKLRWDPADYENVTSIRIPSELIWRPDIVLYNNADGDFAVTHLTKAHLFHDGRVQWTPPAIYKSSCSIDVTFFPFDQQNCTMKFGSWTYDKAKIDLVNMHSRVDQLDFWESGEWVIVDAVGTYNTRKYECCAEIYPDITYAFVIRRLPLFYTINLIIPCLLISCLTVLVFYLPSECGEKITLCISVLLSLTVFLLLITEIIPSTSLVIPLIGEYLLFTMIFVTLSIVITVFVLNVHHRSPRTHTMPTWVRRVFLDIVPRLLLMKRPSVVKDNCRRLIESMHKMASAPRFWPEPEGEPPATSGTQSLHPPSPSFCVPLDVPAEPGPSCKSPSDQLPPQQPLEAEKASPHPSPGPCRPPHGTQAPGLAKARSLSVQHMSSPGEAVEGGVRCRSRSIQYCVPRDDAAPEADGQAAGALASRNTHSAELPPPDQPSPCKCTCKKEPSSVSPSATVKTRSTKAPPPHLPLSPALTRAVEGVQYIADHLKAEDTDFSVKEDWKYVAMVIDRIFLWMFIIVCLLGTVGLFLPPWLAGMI

[8] = Drug level in C57/6J mouse brain at 20 mg/kg, sc after 30 mins; format: ADME, organism-based; design: dose 20 mg/kg, route subcutaneous; settings: read-out: Drug uptake
[9] = target: Alpha-1B adrenergic receptor (Homo sapiens, UniProt P35368); experiment: Binding affinity to human adrenergic Alpha-1B receptor by radioligand displacement assay
Sequence of Alpha-1B adrenergic receptor (P35368 whole entry): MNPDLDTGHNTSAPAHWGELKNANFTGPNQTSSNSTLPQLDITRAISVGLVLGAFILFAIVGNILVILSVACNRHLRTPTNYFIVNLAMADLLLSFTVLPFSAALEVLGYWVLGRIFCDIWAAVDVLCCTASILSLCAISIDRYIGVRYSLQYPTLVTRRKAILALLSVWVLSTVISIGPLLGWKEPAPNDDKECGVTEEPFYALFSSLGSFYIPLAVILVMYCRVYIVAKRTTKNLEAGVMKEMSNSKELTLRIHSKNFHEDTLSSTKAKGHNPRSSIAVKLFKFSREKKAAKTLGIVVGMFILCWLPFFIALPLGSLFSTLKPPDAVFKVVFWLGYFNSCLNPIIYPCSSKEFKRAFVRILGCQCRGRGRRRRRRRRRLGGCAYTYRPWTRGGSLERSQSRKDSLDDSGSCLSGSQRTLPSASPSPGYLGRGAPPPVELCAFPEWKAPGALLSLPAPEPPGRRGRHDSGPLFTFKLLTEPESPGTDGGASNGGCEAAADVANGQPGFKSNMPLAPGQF

[10] = target: Neuropeptide Y receptor type 1 (Homo sapiens, UniProt P25929); experiment: Binding affinity to human neuropeptide Y1 receptor by radioligand displacement assay
Homo sapiens = species on record: Homo sapiens; experiment: Hepatic blood flow in human; format: ADME, organism-based, Liver
[11] = target: 5-hydroxytryptamine receptor 1B (Homo sapiens, UniProt P28222); experiment: Binding affinity to 5-HT1B receptor by radioligand displacement assay
[12] = Volume of distribution at steady state in rat plasma at 1 mg/kg, iv and 2 mg/kg, po; format: ADME, organism-based; settings: read-out: Vdss
[13] = target: T2, Muscarinic acetylcholine receptor M1 (Homo sapiens, UniProt P11229)
T2 sequence (P11229 whole entry): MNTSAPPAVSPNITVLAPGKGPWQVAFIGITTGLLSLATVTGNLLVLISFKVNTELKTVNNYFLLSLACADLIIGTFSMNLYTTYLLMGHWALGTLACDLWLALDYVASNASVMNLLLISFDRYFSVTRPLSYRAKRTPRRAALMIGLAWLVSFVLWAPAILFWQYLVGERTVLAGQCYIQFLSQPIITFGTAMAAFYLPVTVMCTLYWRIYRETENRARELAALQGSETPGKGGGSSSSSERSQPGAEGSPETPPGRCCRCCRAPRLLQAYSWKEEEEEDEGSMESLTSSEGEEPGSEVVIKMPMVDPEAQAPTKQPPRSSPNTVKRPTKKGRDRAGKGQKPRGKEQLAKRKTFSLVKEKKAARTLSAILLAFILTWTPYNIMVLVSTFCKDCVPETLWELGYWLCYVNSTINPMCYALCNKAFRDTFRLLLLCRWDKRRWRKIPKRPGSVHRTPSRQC

Mus musculus [14] = experiment: Reversal of 0 seconds delay-induced memory decay in C57Bl/6J mouse assessed as positive alteration at 0.31 to 20 mg/kg, sc for 1 week by Y-maze test; format: functional; settings: dose mg/kg 0.31-20; route subcutaneous
[15] = target: Muscarinic acetylcholine receptor M3 (Homo sapiens, UniProt P20309); experiment: Agonist activity at human muscarinic M3 receptor expressed in BHK-21 cells assessed as increase of acetylcholine-induced calcium flux at 10 uM by FLIPR assay relative to acetylcholine; format: functional, cell-based
Sequence of Muscarinic acetylcholine receptor M3 (P20309 whole entry, looked up): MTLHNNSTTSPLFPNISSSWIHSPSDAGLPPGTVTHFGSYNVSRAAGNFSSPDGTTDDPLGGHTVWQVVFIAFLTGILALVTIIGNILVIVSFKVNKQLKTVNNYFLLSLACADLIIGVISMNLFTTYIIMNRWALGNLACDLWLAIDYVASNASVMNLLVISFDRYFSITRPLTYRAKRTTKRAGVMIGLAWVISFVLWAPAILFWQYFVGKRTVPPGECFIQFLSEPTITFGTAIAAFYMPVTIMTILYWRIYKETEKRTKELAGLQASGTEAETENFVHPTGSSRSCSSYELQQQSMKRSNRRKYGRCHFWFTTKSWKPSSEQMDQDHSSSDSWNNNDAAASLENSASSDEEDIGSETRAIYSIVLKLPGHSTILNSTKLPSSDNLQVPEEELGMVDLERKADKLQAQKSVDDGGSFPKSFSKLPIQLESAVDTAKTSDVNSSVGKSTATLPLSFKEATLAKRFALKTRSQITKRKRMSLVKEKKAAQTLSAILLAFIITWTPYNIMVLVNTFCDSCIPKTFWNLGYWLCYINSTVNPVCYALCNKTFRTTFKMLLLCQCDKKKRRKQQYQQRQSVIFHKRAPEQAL

[16] = Clearance in rat plasma at 1 mg/kg, iv and 2 mg/kg, po; format: ADME, organism-based
D(2) dopamine receptor = D(2) dopamine receptor (Homo sapiens, UniProt P14416); experiment: Binding affinity to human D2S agonist site receptor by radioligand displacement assay
Sequence of D(2) dopamine receptor (P14416 whole entry): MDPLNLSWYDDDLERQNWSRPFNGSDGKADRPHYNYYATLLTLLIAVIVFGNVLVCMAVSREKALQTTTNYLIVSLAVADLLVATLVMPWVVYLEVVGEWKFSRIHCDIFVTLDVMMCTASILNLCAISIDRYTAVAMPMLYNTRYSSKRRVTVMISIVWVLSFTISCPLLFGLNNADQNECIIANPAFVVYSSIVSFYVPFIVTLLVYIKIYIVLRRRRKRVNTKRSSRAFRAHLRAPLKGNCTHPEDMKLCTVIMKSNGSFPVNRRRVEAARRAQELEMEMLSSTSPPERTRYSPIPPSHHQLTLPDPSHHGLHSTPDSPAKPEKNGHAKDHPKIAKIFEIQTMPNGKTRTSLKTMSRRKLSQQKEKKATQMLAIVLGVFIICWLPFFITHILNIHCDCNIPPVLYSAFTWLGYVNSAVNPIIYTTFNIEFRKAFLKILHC

[17] = Binding affinity to central benzodiazepine receptor by radioligand displacement assay
[18] = target: 5-hydroxytryptamine receptor 2C (Homo sapiens, UniProt P28335); experiment: Binding affinity to human 5HT2C receptor agonist site by radioligand displacement assay
Sequence of 5-hydroxytryptamine receptor 2C (P28335 whole entry): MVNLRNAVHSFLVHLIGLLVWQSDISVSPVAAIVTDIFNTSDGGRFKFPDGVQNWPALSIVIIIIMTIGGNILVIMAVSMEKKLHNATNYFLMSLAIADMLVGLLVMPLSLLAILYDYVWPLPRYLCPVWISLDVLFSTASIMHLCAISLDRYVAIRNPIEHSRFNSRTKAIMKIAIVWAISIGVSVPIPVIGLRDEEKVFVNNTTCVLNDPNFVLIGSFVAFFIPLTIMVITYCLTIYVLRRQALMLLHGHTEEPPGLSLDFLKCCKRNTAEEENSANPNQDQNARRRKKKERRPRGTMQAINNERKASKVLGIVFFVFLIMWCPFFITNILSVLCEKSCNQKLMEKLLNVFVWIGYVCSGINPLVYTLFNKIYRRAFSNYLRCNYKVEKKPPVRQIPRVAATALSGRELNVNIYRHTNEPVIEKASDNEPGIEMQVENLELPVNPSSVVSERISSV

Mus musculus [19] = experiment: Reversal of 60 seconds delay-induced memory decay in C57Bl/6J mouse assessed as positive alteration at 10 to 20 mg/kg, sc for 1 week by Y-maze test; format: functional, organism-based

In the case of `O=C(Cc1ccccc1)NC1CCN(CCCN2C(=O)COc3ccccc32)CC1`, the Ki [1] is reported as ≥ 1 µM, the Ki (Acetylcholinesterase) is reported as ≥ 1 µM and the EC50 [2] is reported as 0.097 µM. For the same compound, the Ki [3] was ≥ 1 µM, the Ki [4] was ≥ 1 µM and the Ki [5] was ≥ 1 µM. For the same compound, the Ki (Histamine H2 receptor) was ≥ 1 µM, the Ki [6] was ≥ 1 µM and the Activity (Brain) was 70%. For the same compound, the Ki [7] was ≥ 1 µM, the concentration at 0.5 h [8] was 440 ng/g and the Ki [9] was 0.91 µM. The Ki [10] was ≥ 1 µM, the QH (Homo sapiens) was 1.4 L/min and the Ki [11] was ≥ 1 µM. The Vd [12] was 4.8 L/kg, the EC50 [13] was 0.061 µM and the Activity (Mus musculus [14]) was 80%. For the same compound, the Emax [15] was 1%, the clearance [16] was 83.3 mL/min/kg and the Ki (D(2) dopamine receptor) was ≥ 1 µM. For the same compound, the Ki [17] was ≥ 1 µM, the Ki [18] was ≥ 1 µM and the Activity (Mus musculus [19]) was “Active”.
